We go through four molecules from patent US8524755B2 (priority 2009, dated 2013).

Assay [1] has as its system Benzodiazepine BZD (central). The assay can be described thus: Binding BZD (central) (ag). Also on record: species or system rat. Here is the method: (§1) Radioligand binding assay methods utilized to measure the activity of compounds of the invention will be familiar to those skilled in the art. In each assay case, the assay components such as, for example, the cell-type, ligand, reference compound and the like, will be familiar to practitioners of such an assay.
(§2) Analysis and Expression of Results: Compounds of the invention were tested in the biochemical assays and percent inhibition of specific binding was determined. The specific ligand binding to the receptors is defined as the difference between the total binding and the nonspecific binding determined in the presence of an excess of unlabelled ligand. The results are expressed as a percent inhibition of control specific binding (100−((measured specific binding/control specific binding)×100)) obtained in the presence of test compounds.

In a further assay the target is T1, Glucocorticoid GR (h) (Homo sapiens, UniProt P04150).
T1 construct: IM-9 cells (cytosol); endogenous in cells; host or cells: IM-9 cells (cytosol)
T1 sequence (P04150 1-777): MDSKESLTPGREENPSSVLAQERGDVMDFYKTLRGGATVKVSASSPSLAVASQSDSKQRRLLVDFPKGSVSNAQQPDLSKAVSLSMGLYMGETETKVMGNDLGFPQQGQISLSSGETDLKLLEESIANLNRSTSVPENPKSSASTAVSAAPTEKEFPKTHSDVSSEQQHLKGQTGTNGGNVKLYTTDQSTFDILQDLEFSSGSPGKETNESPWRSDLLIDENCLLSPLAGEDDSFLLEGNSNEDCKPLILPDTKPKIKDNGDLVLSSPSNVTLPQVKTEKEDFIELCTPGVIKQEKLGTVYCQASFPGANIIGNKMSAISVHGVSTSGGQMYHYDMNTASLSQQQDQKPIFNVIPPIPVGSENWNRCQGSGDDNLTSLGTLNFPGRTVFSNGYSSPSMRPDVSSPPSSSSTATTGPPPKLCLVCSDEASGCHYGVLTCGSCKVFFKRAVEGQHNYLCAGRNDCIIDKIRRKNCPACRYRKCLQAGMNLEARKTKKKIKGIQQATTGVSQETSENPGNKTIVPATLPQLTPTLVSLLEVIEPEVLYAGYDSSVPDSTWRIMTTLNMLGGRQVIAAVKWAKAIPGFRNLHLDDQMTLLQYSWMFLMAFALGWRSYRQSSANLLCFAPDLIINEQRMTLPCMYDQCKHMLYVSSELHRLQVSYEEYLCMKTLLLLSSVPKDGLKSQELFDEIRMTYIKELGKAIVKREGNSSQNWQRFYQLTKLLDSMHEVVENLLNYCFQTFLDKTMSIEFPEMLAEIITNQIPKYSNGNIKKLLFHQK
The assay is described as follows: Binding GR (h) (ag). The settings on record: read-out: % Inhibition of Control Specific Binding @ 10 μM. Here is the method: as §1, §2

For a further assay, the system named is GABA transporter. The assay is described as follows: Binding GABA transporter (aa). Also on record: species or system rat. Here is the method:
as §1, §2

A further assay has as its target T2, MAO-B (h) (Homo sapiens, UniProt P27338).
T2 construct: human platelets; from tissue; host or cells: human platelets
T2 sequence (P27338 1-520): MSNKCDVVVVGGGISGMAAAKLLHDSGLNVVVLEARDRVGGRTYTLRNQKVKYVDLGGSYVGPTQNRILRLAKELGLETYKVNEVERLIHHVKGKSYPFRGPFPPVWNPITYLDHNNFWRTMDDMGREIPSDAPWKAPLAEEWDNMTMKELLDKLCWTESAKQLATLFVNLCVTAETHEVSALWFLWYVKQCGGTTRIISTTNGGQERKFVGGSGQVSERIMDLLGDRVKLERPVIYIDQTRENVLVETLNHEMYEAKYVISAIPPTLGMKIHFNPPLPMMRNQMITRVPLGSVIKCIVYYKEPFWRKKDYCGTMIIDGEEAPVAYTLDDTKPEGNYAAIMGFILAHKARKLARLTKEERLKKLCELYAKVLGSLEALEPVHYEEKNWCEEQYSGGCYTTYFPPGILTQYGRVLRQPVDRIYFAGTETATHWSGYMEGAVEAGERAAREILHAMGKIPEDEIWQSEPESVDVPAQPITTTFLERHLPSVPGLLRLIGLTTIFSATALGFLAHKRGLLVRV
The assay can be described thus: Enzyme assay MAO-B (h). The settings on record: read-out: % Inhibition of Control Values @ 10 μM. It counts as biochemical. From the text:
The enzyme assays provided below will be familiar to those skilled in the art.
Analysis and Expression of Results: The results are expressed as a percent of control specific activity ((measured specific activity/control specific activity)×100) obtained in the presence of the test compounds.

Assay [2] addresses T3, human GABAA α1β3 receptor (Homo sapiens, UniProt P14867+P28472).
T3 construct: expressed in transfected cells; host or cells: Xenopus laevis oocytes, cDNA injection
T3 sequence (P14867 28-456): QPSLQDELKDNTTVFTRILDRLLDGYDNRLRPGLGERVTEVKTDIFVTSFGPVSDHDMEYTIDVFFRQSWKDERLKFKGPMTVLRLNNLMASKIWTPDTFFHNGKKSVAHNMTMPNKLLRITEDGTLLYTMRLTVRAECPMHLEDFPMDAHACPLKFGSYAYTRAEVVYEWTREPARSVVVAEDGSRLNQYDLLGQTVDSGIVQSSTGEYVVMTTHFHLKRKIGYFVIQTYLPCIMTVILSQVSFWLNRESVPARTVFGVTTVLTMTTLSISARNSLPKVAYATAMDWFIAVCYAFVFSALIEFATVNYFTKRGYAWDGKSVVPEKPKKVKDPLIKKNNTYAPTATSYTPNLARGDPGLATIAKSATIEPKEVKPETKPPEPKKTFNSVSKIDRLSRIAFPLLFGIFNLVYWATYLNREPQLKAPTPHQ
T3 sequence (P28472 26-473): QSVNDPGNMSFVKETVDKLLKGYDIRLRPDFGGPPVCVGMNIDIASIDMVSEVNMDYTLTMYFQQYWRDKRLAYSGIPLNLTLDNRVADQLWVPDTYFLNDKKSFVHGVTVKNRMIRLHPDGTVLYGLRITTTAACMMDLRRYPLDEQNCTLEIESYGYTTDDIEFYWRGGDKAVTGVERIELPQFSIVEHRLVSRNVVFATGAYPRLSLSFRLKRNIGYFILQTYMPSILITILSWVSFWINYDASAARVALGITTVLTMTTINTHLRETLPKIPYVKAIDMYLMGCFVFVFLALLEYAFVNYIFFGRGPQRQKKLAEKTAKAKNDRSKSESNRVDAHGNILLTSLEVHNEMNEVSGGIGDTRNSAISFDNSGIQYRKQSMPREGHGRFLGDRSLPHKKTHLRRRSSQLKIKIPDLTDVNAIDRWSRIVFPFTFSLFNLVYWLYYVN
The assay is described as follows: cell-based. The note with it: for inhibition at 100 µM: read-out: α1β3 GABAA % Inhibition @ 100 μM; for IC50: α1β3 GABAA IC50 (μM).

Regarding `CC1(C)C(=O)N(c2ccc(C#N)c(C(F)(F)F)c2)C(=S)N1c1ccc(C(=O)O)c(F)c1` [(MI), 4-(3-(4-cyano-3-(trifluoromethyl)phenyl)-5,5-dimethyl-4-oxo-2-thioxoimidazolidin-1-yl)-2-fluorobenzoic acid], the “% Inhibition of Control Specific Binding @ 10 μM” value (from here on “% Inhibition”) in assay [1] was −35%. Moreover, the inhibition at 10 µM at Glucocorticoid GR (h) worked out at 5%. The “% Inhibition” value with GABA transporter is −16%. Also, on MAO-B (h), the inhibition at 10 µM is 8%. For the same molecule, in assay [2], the “inhibition achieved at the highest concentration” value came to 75±18.4%, the inhibition at 100 µM was determined as 90% and the IC50 was 20.7 ± 6 µM.
As to `CC1(C)C(=O)N(c2ccc(C#N)c(C(F)(F)F)c2)C(=S)N1c1ccc(C(N)=O)c(F)c1` [(MII), 4-(3-(4-Cyano-3-(trifluoromethyl)phenyl)-5,5-dimethyl-4-oxo-2-thioxoimidazolidin-1-yl)-2-fluorobenzamide], the figures for the “% Inhibition” value (in assay [1]; in the assay with GABA transporter) were −37% and 7%, respectively. Also, the figures for the inhibition at 10 µM at Glucocorticoid GR (h) and on MAO-B (h) were 30% and -4%, respectively. In addition, the “inhibition achieved at the highest concentration” value in assay [2] is recorded as 80±10%. Further, the inhibition at 100 µM in assay [2] came to 88%.
Consider `CC1(C)C(=O)N(c2ccc(C#N)c(C(F)(F)F)c2)C(=O)N1c1ccc(C(N)=O)c(F)c1` [(MIII), 4-(3-(4-cyano-3-(trifluoromethyl)phenyl)-5,5-dimethyl-2,4-dioxoimidazolidin-1-yl)-2-fluorobenzamide], for which the “% Inhibition” value in assay [1] is reported as −20%; in the assay with GABA transporter it was −35%. In addition, the inhibition at 10 µM at Glucocorticoid GR (h) was 0%; on MAO-B (h), -5%. Further, the inhibition at 100 µM in assay [2] worked out at 57%. This molecule also returned an IC50 in assay [2] of 4 ± 3.15 µM.
Consider `CNC(=O)c1ccc(N2C(=O)N(c3ccc(C#N)c(C(F)(F)F)c3)C(=O)C2(C)C)cc1F` [(MIV), 4-(3-(4-cyano-3-(trifluoromethyl)phenyl)-5,5-dimethyl-2,4-dioxoimidazolidin-1-yl)-2-fluoro-N-methylbenzamide], for which the figures for the “% Inhibition” value (in assay [1]; with GABA transporter) were −29% and −24%, respectively. Also, the inhibition at 10 µM came out at 4% at Glucocorticoid GR (h) and 11% on MAO-B (h). For the same molecule, the inhibition at 100 µM in assay [2] was determined as 78%.

The term inhibition denotes the change of the read-out against control, counted positive when it falls. The IC50 is the point on the concentration scale where inhibition reaches its midpoint.
